Measured values published in patent US9738595B2, “Carboxamide compounds” (SYNGENTA PARTICIPATIONS AG, priority 2013, dated 2017).

Row | melting point | Compound
1 | 115 to 116 °C | CC(C)(NC(=O)c1c(F)cccc1F)C(=O)c1ccc([C@H]2C[C@@H]2C(=O)O)cc1 (racemic) [Compound 19.061, trans-2-[4-[2-[(2,6-Difluorobenzoyl)amino]-2-methyl-propanoyl]phenyl]cyclopropane carboxylic acid]
2 | 121 to 123 °C | CC(C)(NC(=O)c1c(F)cccc1F)C(=O)c1ccc(C2CC2)cc1 [Compound 19.001, N-[2-(4-cyclopropylphenyl)-1,1-dimethyl-2-oxo-ethyl]-2,6-difluoro-benzamide]
3 | 197 to 198 °C | CC(C)(C)OC(=O)N[C@H]1C[C@@H]1c1ccc(C(=O)C(C)(C)NC(=O)c2c(F)cccc2F)cc1 (racemic) [Compound 19.062, trans-tert-Butyl N-[2-[4-[2-[(2,6-difluorobenzoyl)amino]-2-methyl-propanoyl]phenyl]cyclopropyl]carbamate]
4 | 65 to 82 °C | CC(C)(NC(=O)c1c(F)cccc1F)C(=O)c1ccc([C@H]2C[C@@H]2C(F)(F)F)cc1 (racemic) [Compound 19.003, N-[1,1-dimethyl-2-oxo-2-[4-[trans-2-(trifluoromethyl)-1-cyclopropyl]phenyl]ethyl]-2,6-difluoro-benzamide]
